# In patent US7553821B2, “Methods for selectively modulating survivin apoptosis pathways” (Yale University, priority 2000, dated 2009):
# Tested on: HeLa cells
# Assay: Nuclear morphology of apoptosis (DAPI) in transfected HeLa cells
# Type: cell-based
# Text: HeLa cells transfected with GFP-vector (vector), GFP-survivin(T34A) (T34A), or GFP-caspase-9 (Met^1-Asp^330) (caspase-9), were scored morphologically for nuclear integrity by DAPI staining after 48-h. Arrows, nuclear fragmentation and chromatin condensation in GFP-expressing cells.
# The experimental procedures are the same as in A. Data are the meaνSEM of four independent experiments.
# HeLa cells were transfected with the various indicated combinations of GFP-constructs, with or without etoposide (10 μg/ml) or TNFα (10 ng/ml) plus cycloheximide (10 μg/ml), harvested after 48 h, and GFP-labeled cells were morphologically scored for nuclear fragmentation by DAPI staining, as described in FIG. 2B. DN, dominant negative. Data are the mea±SEM of four independent experiments.
# Transfection experiments. For transient transfection, HeLa cells in C-6 tissue culture plates (Costar, Cambridge, Mass.) at ˜60-70% confluency, were incubated in 1 ml of serum-free OptiMEM medium (Life Technologies, Gaithersburg, Md.) for 20 min, and transfected with 2.5 μg of the various plasmid cDNAs plus 9 μl Lipofectamine (Life Technologies). After a 5 h incubation at 37° C., the mixture was aspirated and substituted with complete growth medium for 48-72 h. To generate stable YUSAC-2 transfectants, a survivin(T34A) cDNA was inserted into the HindIII-SpeI sites of the pTet-splice vector (Dr. D. Schatz, Yale University School of Medicine), downstream of the regulatory sequences of the Tet-resistance operon (TetO). YUSAC-2 cells were transfected with 0.8 μg pTet-T34A, 0.8 μg of the transactivation/selection plasmid ptTA-Neo and 5 μl Lipofectamine in 1 ml of OptiMem. Forty-eight h after transfection, cells were re-plated at low density in 15×150 mm plates in growth medium containing 1.5 mg/ml Geneticin (G418, Life Technologies), 2 mM sodium hydroxide and 0.5 μg/ml Tet (Sigma, St. Louis, Mo.) (selection medium). After a 3-week culture, ninety-six individual clones were screened for differential growth in the presence or absence of Tet. […] Flow cytometry. HeLa cells transfected with the various GFP constructs in the presence or in the absence of the broad-spectrum caspase inhibitor Z-VAD-fmk (20 μM) were harvested after 48-h (non-adherent and adherent cells), washed in PBS, pH 7.0, and fixed in cold 70% ethanol for 30 min on ice. After washes in PBS, cells (10×10^6/ml) were stained with 25 μg/ml propidium iodide (Sigma), 0.05% Triton X-100 and 100 μg/ml RNAse A (Boehringer Mannheim, Indianapolis, Ind.) for 45 min at 22° C. Gated GFP-expressing cells were analyzed for DNA content by flow cytometry on a FACSort (Becton Dickinson, San Jose, Calif.) using a Cell Quest software. In other experiments, F5-C4 cells were synchronized at the G1/S boundary by culture with 5-mM thymidine for 16 h at 37° C., in the presence or in the absence of Tet. At the end of the incubation, cells were released from the thymidine block, and harvested at 3-h intervals for DNA content analysis by propidium iodide staining and flow cytometry, or, alternatively, for caspase-9 processing by Western blotting (see below). TUNEL staining. Internucleosomal DNA fragmentation of F5.C4 cells in the presence or in the absence of Tet was carried out by end-labeling with terminal deoxynucleotidyl transferase (TdT) and peroxidase-conjugated anti-digoxigenin antibody using the ApopTag kit (Intergen, Purchase, N.Y.), as described previously (Grossman et al., 1999). Immunoprecipitation and Western blotting. Asynchronously growing or synchronized HeLa cells were lysed in 200 μl of lysis buffer containing 50 mM Tris, pH 7.5, 1% NP-40, 0.25% DOC, 150 mM NaCl, 1 mM PMSF, 10 μg/ml aprotinin, 10 μg/ml leupeptin, 10 μg/ml pepstatin, 1 mM Na3VO4, 20 mM NaF, 0.2 mM EGTA, 1 mM EDTA, pH 8.0, for 30 min at 4° C. Insoluble material was removed by centrifugation at 14,000 rpm for 15 min, and two-hundred μg of protein lysate was pre-absorbed with 25 μl of a 50:50 Protein A Sepharose slurry (Pharmacia) for 3 h at 4° C. with constant agitation. […]
substance,measurement,setting,value
"survivin(T34A): dominant-negative, non-phosphorylatable survivin mutant with Thr34→Ala substitution, expressed from transfected cDNA (also HA- or GFP-tagged)","spontaneous chromatin condensation and DNA fragmentation, GFP-expressing cells","GFP fusion, 48 h, no exogenous apoptotic stimuli",~80%
same,ability to induce spontaneous apoptosis upon transient transfection,survivin BIR domain mutants,particularly effective
